According to patent US20240252488A1 (KOREA RESEARCH INSTITUTE OF CHEMICAL TECHNOLOGY, priority 2020, published 2024):

Key:
MLKL [1] = target: T1, MLKL (Homo sapiens, UniProt Q8NB16); test: MLKL degradation assay in HepG2 cell line (western blot); format: cell-based; set-up: endogenous in cells; host or cells: HepG2 or HaCaT; conditions: cell line not given; for Degradation assay (Degradation %) 1 μM: compound 1 μM; for Degradation assay (Degradation %) 10 μM: compound 10 μM
T1 sequence (Q8NB16 1-471): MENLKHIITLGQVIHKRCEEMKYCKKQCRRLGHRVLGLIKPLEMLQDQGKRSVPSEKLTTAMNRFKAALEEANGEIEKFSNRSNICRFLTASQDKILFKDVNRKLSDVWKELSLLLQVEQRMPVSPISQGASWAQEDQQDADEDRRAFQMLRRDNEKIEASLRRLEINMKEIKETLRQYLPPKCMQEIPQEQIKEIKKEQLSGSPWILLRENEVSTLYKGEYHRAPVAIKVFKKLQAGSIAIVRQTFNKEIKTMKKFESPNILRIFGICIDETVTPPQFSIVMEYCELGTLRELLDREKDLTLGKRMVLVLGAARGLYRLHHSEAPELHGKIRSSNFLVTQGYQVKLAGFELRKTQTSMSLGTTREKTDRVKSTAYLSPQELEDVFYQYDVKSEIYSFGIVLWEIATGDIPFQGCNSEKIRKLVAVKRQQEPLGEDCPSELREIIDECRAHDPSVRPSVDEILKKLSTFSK
Procedure, shortened: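 Degradation is judged from MLKL band intensity on immunoblots of HepG2 lysates taken after 20-24 hours of compound at final 1 or 10 μM.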

FADD−/− Jurkat cells = test: Necroptosis inhibition assay, TNF-α-induced necroptosis (CellTiter-Glo 2.0); format: cell-based, human; conditions: TNF-α 15 ng/mL; for Necroptosis inhibition assay (Rescue %) 1 μM: compound 1 μM; for Necroptosis inhibition assay (Rescue %) 10 μM: compound 10 μM
Procedure, shortened: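 Tested at three fixed concentrations (0.1, 1, 10 μM final) with a 30-minute room-temperature preincubation ahead of 15 ng/mL TNF-α challenge lasting 20 to 24 hours. Inhibition rate and cytotoxicity derive from ATP luminescence.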

MLKL [2] = target: T1, MLKL; test: Measurement of binding affinity with MLKL receptor (competitive binding assay, Kd); set-up: made in house; host or cells: HEK 293 cell line (T7 phage in E. coli BL21-derived host is also described)
Procedure, shortened: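 Competitive displacement of MLKL, expressed in HEK 293 cells and DNA-tagged for qPCR, from immobilized ligand on biotin-blocked beads. Compounds were added from 111× DMSO stocks (final DMSO 0.9%). Kinase left in the eluates was quantified by qPCR to give Kd.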

Structure (SMILES) | Degradation assay (Degradation %) 1 μM (MLKL [1]) | Degradation assay (Degradation %) 10 μM (MLKL [1]) | Kd (MLKL [2]) | Necroptosis inhibition assay (Rescue %) 1 μM (FADD−/− Jurkat cells) | Necroptosis inhibition assay (Rescue %) 10 μM (FADD−/− Jurkat cells)
Nc1ncc(-c2cnn(C3CCN(CCCCCCCCCCNC(=O)C4CN(c5ccc6nnn(C7CCC(=O)NC7=O)c(=O)c6c5)C4)CC3)c2)nc1C(=O)O[C@@H](C(=O)Nc1ccc(F)cc1)c1ccccc1 (stereo partly drawn) [TDH-178, (R)-2-((4-fluorophenyl)amino)-2-oxo-1-phenylethyl 3-amino-6-(1-(1-(10-(1-(3-(2,6-dioxopiperidin-3-yl)-4-oxo-3,4-dihydrobenzo[d][1,2,3]triazin-6-yl)azetidine-3-carboxamido)decyl)piperidin-4-yl)-1H-pyrazol-4-yl)pyrazine-2-carboxylate] | 72.12% | 84.5% | 73 nM | 24.45% | 28.25%
Nc1ncc(-c2cnn(C3CCN(CCCCCCCCCCNc4ccc5nnn(C6CCC(=O)NC6=O)c(=O)c5c4)CC3)c2)nc1C(=O)O[C@@H](C(=O)Nc1ccc(F)cc1)c1ccccc1 (stereo partly drawn) [TDH-179, (R)-2-((4-fluorophenyl)amino)-2-oxo-1-phenylethyl 3-amino-6-(1-(1-(10-((3-(2,6-dioxopiperidin-3-yl)-4-oxo-3,4-dihydrobenzo[d][1,2,3]triazin-6-yl)amino)decyl)piperidin-4-yl)-1H-pyrazol-4-yl)pyrazine-2-carboxylate] | 78.61% | 61.56% | 31 nM | 23.48% | 14.8%
Nc1ncc(-c2cnn(C3CCN(CC4CCN(C(=O)COc5cccc6c5C(=O)N(C5CCC(=O)NC5=O)C6=O)CC4)CC3)c2)nc1C(=O)N[C@@H](C(=O)Nc1ccc(F)cc1)c1ccccc1 (stereo partly drawn) [TDH-186, 3-amino-6-(1-(1-((1-(2-((2-(2,6-dioxopiperidin-3-yl)-1,3-dioxoisoindolin-4-yl)oxy)acetyl)piperidin-4-yl)methyl)piperidin-4-yl)-1H-pyrazol-4-yl)-N-((R)-2-((4-fluorophenyl)amino)-2-oxo-1-phenylethyl)pyrazine-2-carboxamide] | 14.8% | 21.54% | 75 nM | 35.73% | 35.74%
Nc1ncc(-c2cnn(C3CCN(CC4CCN(C(=O)COc5ccc6c(c5)C(=O)N(C5CCC(=O)NC5=O)C6=O)CC4)CC3)c2)nc1C(=O)N[C@@H](C(=O)Nc1ccc(F)cc1)c1ccccc1 (stereo partly drawn) [TDH-187, 3-amino-6-(1-(1-((1-(2-((2-(2,6-dioxopiperidin-3-yl)-1,3-dioxoisoindolin-5-yl)oxy)acetyl)piperidin-4-yl)methyl)piperidin-4-yl)-1H-pyrazol-4-yl)-N-((R)-2-((4-fluorophenyl)amino)-2-oxo-1-phenylethyl)pyrazine-2-carboxamide] | 27.67% |  | 150 nM | 28.68% | 29.31%
Nc1ncc(-c2cnn(C3CCN(CCC4CCN(C(=O)C5CCN(c6cccc7c6C(=O)N(C6CCC(=O)NC6=O)C7=O)CC5)CC4)CC3)c2)nc1C(=O)O[C@@H](C(=O)Nc1ccc(F)cc1)c1ccccc1 (stereo partly drawn) [TDH-196, (R)-2-((4-fluorophenyl)amino)-2-oxo-1-phenylethyl 3-amino-6-(1-(1-(2-(1-(1-(2-(2,6-dioxopiperidin-3-yl)-1,3-dioxoisoindolin-4-yl)piperidine-4-carbonyl)piperidin-4-yl)ethyl)piperidin-4-yl)-1H-pyrazol-4-yl)pyrazine-2-carboxylate] | 62.01% | 51.12% | 0.97 nM | 60.75% | 34%

Now from value to compound, other results behind:

Degradation assay (Degradation %) 1 μM (MLKL [1]) | Degradation assay (Degradation %) 10 μM (MLKL [1]) | Kd (MLKL [2]) | Structure (SMILES) | Necroptosis inhibition assay (Rescue %) 1 μM (FADD−/− Jurkat cells) | Necroptosis inhibition assay (Rescue %) 10 μM (FADD−/− Jurkat cells)
7.04% | 5.3% | 3.5 nM | Nc1ncc(-c2cnn(C3CCN(C(=O)COCCOCCNC(=O)COc4cccc5c4C(=O)N(C4CCC(=O)NC4=O)C5=O)CC3)c2)nc1C(=O)O[C@@H](C(=O)Nc1ccc(F)cc1)c1ccccc1 (stereo partly drawn) [TDH-188, (R)-2-((4-fluorophenyl)amino)-2-oxo-1-phenylethyl 3-amino-6-(1-(1-(2-(2-(2-(2-((2-(2,6-dioxopiperidin-3-yl)-1,3-dioxoisoindolin-4-yl)oxy)acetamido)ethoxy)ethoxy)acetyl)piperidin-4-yl)-1H-pyrazol-4-yl)pyrazine-2-carboxylate] | 45.68% | 42.08%
 | 4.57% | 13 nM | Nc1ncc(-c2cnn(C3CCN(C(=O)COCCOCCNC(=O)CNc4cccc5c4C(=O)N(C4CCC(=O)NC4=O)C5=O)CC3)c2)nc1C(=O)O[C@@H](C(=O)Nc1ccc(F)cc1)c1ccccc1 (stereo partly drawn) [TDH-190, (R)-2-((4-fluorophenyl)amino)-2-oxo-1-phenylethyl 3-amino-6-(1-(1-(2-(2-(2-(2-((2-(2,6-dioxopiperidin-3-yl)-1,3-dioxoisoindolin-4-yl)amino)acetamido)ethoxy)ethoxy)acetyl)piperidin-4-yl)-1H-pyrazol-4-yl)pyrazine-2-carboxylate] | 39.55% | 43.59%
44.99% | 5.25% | 4.9 nM | Nc1ncc(-c2cnn(C3CCN(C(=O)COCCOCCNC(=O)CNc4ccc5c(c4)C(=O)N(C4CCC(=O)NC4=O)C5=O)CC3)c2)nc1C(=O)O[C@@H](C(=O)Nc1ccc(F)cc1)c1ccccc1 (stereo partly drawn) [TDH-191, (R)-2-((4-fluorophenyl)amino)-2-oxo-1-phenylethyl 3-amino-6-(1-(1-(2-(2-(2-(2-((2-(2,6-dioxopiperidin-3-yl)-1,3-dioxoisoindolin-5-yl)amino)acetamido)ethoxy)ethoxy)acetyl)piperidin-4-yl)-1H-pyrazol-4-yl)pyrazine-2-carboxylate] | 77.85% | 49.93%
 | 11.22% | 6.1 nM | Nc1ncc(-c2cnn(C3CCN(C(=O)COCCOCCNC(=O)C4CN(c5ccc6c(c5)C(=O)N(C5CCC(=O)NC5=O)C6=O)C4)CC3)c2)nc1C(=O)O[C@@H](C(=O)Nc1ccc(F)cc1)c1ccccc1 (stereo partly drawn) [TDH-193, (R)-2-((4-fluorophenyl)amino)-2-oxo-1-phenylethyl 3-amino-6-(1-(1-(2-(2-(2-(1-(2-(2,6-dioxopiperidin-3-yl)-1,3-dioxoisoindolin-5-yl)azetidine-3-carboxamido)ethoxy)ethoxy)acetyl)piperidin-4-yl)-1H-pyrazol-4-yl)pyrazine-2-carboxylate] | 43.97% | 40.55%
33.12% | 18.24% | 6.7 nM | Nc1ncc(-c2cnn(C3CCN(C(=O)COCCOCCNC(=O)C4CCN(c5cccc6c5C(=O)N(C5CCC(=O)NC5=O)C6=O)CC4)CC3)c2)nc1C(=O)O[C@@H](C(=O)Nc1ccc(F)cc1)c1ccccc1 (stereo partly drawn) [TDH-194, (R)-2-((4-fluorophenyl)amino)-2-oxo-1-phenylethyl 3-amino-6-(1-(1-(2-(2-(2-(1-(2-(2,6-dioxopiperidin-3-yl)-1,3-dioxoisoindolin-4-yl)piperidine-4-carboxamido)ethoxy)ethoxy)acetyl)piperidin-4-yl)-1H-pyrazol-4-yl)pyrazine-2-carboxylate] | 67.94% | 58.3%
63.85% | 29.78% | 6.9 nM | Nc1ncc(-c2cnn(C3CCN(C(=O)COCCOCCNC(=O)C4CCN(c5ccc6c(c5)C(=O)N(C5CCC(=O)NC5=O)C6=O)CC4)CC3)c2)nc1C(=O)O[C@@H](C(=O)Nc1ccc(F)cc1)c1ccccc1 (stereo partly drawn) [TDH-195, (R)-2-((4-fluorophenyl)amino)-2-oxo-1-phenylethyl 3-amino-6-(1-(1-(2-(2-(2-(1-(2-(2,6-dioxopiperidin-3-yl)-1,3-dioxoisoindolin-5-yl)piperidine-4-carboxamido)ethoxy)ethoxy)acetyl)piperidin-4-yl)-1H-pyrazol-4-yl)pyrazine-2-carboxylate] | 80.66% | 39.24%
